Values of other authors as cited in article PMC5548178 (Pharmacotherapy, 2016).
Like-named read-outs stand apart in the source and are kept apart here.

Columns and labels:
[1] = system: P-glycoprotein (P-gp)
[2] = reported variability in healthy volunteers
[3] = system: triglyceride levels
[4] = single-dose gemfibrozil 600 mg after 2 weeks of lopinavir 400 mg–ritonavir 100 mg twice daily; healthy volunteers

| Substrate for the efflux transporter P-glycoprotein [1] | AUC (mean ± SD) [2] | Reduction in gemfibrozil exposure (AUC0-∞) [4] | SMILES | Mean change in triglyceride levels ([3]; HIV-infected patients receiving NNRTI-based cART) | Mean change in triglyceride levels ([3]; non–HIV-infected controls) |
| --- | --- | --- | --- | --- | --- |
| not a substrate | 92 ± 26 µg·h/mL | – | CC(C)(Oc1ccc(C(=O)c2ccc(Cl)cc2)cc1)C(=O)O [fenofibric acid] | – | – |
| – | – | 41% | Cc1ccc(C)c(OCCCC(C)(C)C(=O)O)c1 [gemfibrozil] | –60.3% | –59.3% |
